According to patent publication US20260191838A1, “COMBINATIONS COMPRISING A MENIN-MLL INHIBITOR AND A BCL-2 INHIBITOR” (JANSSEN PHARMACEUTICA NV, priority 2022, published 2026):

Tested on: MOLM-13 cells
Assay: In vitro proliferation (Cell Titer Glo), Compound 51 with decitabine and venetoclax, MOLM-13
Type: cell-based, human
Design: key to maxR test call (additive / antagonism / synergy): no asterisk: absence of any asterisk indicates an additive effect; antagonism is indicated by “*”; synergy is indicated by “**”; Effect size (BIGL, HSA null model): scale not given here
Method: 3a) In Vitro Proliferation—Menin-MLL Inhibitor in Combination with a DNA Hypomethylating Agent (Decitabine) and a BCL2 Inhibitor (Venetoclax)
The effect of Compound 51 in combination with decitabine and venetoclax was determined in proliferation assays.
AML cell lines MOLM-13, OCI-AML3 and MV4-11 were purchased from DSMZ. MOLM-13 were grown in RPMI medium supplemented with 10% Fetal Bovine Serum (FBS) and 1% penicillin/streptomycin. MV4-11 cells were grown in IMDM medium supplemented with 10% FBS and 1% penicillin/streptomycin. OCI-AML3 cells were cultured in 80-90% alpha-MEM (without ribo- and deoxyribonucleosides)+10-20% FBS. All cell lines were cultured at 37° C. in 5% CO2 atmosphere.
AML cell lines (10×10^3 cells/well) were seeded in 96-well plates and grown for 6 days in serum (10%)-containing medium in the presence or absence of inhibitors at the indicated concentrations. Proliferation was analyzed by means of a Cell Titer Glo assay using the CellTiter 96 Aqueous One Solution Cell Proliferation Assay (Promega, Madison, WI, USA), according to the manufacturer's instructions. Data are mean with standard deviation from two to four independent experiments in technical triplicates.
R-based Biochemically Intuitive Generalized Loewe (BIGL) model implemented with a highest single agent (HSA) null model. Specifically, the BIGL methodology was applied to calculate drug-drug interactions (Van der Borght, K., Tourny, A., Bagdziunas, R. et al. BIGL: Biochemically Intuitive Generalized Loewe null model for prediction of the expected combined effect compatible with partial agonism and antagonism. Sci Rep 7, 17935 (2017); Thas, O., Tourny, A., Verbist, B., Hawinkel, S., Nazarov, M., Mutambanengwe, K., & Bijnens, L. Statistical detection of synergy: new methods and a comparative study. Pharmaceutical Statistics (2021)).
Synergy matrix results of the BIGL analysis of the cell line data with HSA as mean model calculated on the basis of the cellular metabolic activity using Cell Titer-Glo assay. Bootstrap confidence intervals are indicated. Effect sizes and their confidence intervals are shown. […] No significant average effect if zero is included in the interval.

[1] = Compound 51 0.05 μM, Decitabine 0.015 μM, Venetoclax 0.001 μM
[2] = Compound 51 0.05 μM, Decitabine 0.35 μM, Venetoclax 0.002 μM
[3] = Compound 51 0.1 μM, Decitabine 0.015 μM, Venetoclax 0.001 μM
[4] = Compound 51 0.1 μM, Decitabine 0.35 μM, Venetoclax 0.002 μM
[5] = Compound 51 1 μM, Decitabine 0.35 μM, Venetoclax 0.002 μM
[6] = Compound 51 10 μM, Decitabine 0.015 μM, Venetoclax 0.001 μM
[7] = Compound 51 10 μM, Decitabine 0.35 μM, Venetoclax 0.002 μM

## CC(=O)N1CCC(CN2CC[C@@H](Cc3cn(-c4ccc(F)cc4C(=O)N(C)C(C)C)c4cncc(C)c34)C2)CC1 [Compound 51]
Compound 51 0.001 μM, Decitabine 0.0015 μM, Venetoclax 0.0001 μM
  Effect size (BIGL, HSA null model): −0.04
Compound 51 0.001 μM, Decitabine 0.015 μM, Venetoclax 0.001 μM
  Effect size (BIGL, HSA null model): −0.05
Compound 51 0.001 μM, Decitabine 0.35 μM, Venetoclax 0.002 μM
  Effect size (BIGL, HSA null model): 0.01
Compound 51 0.001 μM, Decitabine 1.5 μM, Venetoclax 0.02 μM
  Effect size (BIGL, HSA null model): −0.04
Compound 51 0.001 μM, Decitabine 3 μM, Venetoclax 0.2 μM
  Effect size (BIGL, HSA null model): −0.03
Compound 51 0.01 μM, Decitabine 0.0015 μM, Venetoclax 0.0001 μM
  Effect size (BIGL, HSA null model): −0.02
Compound 51 0.01 μM, Decitabine 0.015 μM, Venetoclax 0.001 μM
  Effect size (BIGL, HSA null model): −0.17
Compound 51 0.01 μM, Decitabine 0.35 μM, Venetoclax 0.002 μM
  Effect size (BIGL, HSA null model): −0.1
Compound 51 0.01 μM, Decitabine 1.5 μM, Venetoclax 0.02 μM
  Effect size (BIGL, HSA null model): −0.05
Compound 51 0.01 μM, Decitabine 3 μM, Venetoclax 0.2 μM
  Effect size (BIGL, HSA null model): −0.03
Compound 51 0.05 μM, Decitabine 0.0015 μM, Venetoclax 0.0001 μM
  Effect size (BIGL, HSA null model): −0.03
[1]
  Effect size (BIGL, HSA null model): −0.18
  maxR test call (additive / antagonism / synergy): **
[2]
  Effect size (BIGL, HSA null model): −0.25
  maxR test call (additive / antagonism / synergy): **
Compound 51 0.05 μM, Decitabine 1.5 μM, Venetoclax 0.02 μM
  Effect size (BIGL, HSA null model): −0.05
Compound 51 0.05 μM, Decitabine 3 μM, Venetoclax 0.2 μM
  Effect size (BIGL, HSA null model): −0.03
Compound 51 0.1 μM, Decitabine 0.0015 μM, Venetoclax 0.0001 μM
  Effect size (BIGL, HSA null model): 0.01
[3]
  Effect size (BIGL, HSA null model): −0.16
  maxR test call (additive / antagonism / synergy): **
[4]
  Effect size (BIGL, HSA null model): −0.27
  maxR test call (additive / antagonism / synergy): **
Compound 51 0.1 μM, Decitabine 1.5 μM, Venetoclax 0.02 μM
  Effect size (BIGL, HSA null model): −0.05
Compound 51 0.1 μM, Decitabine 3 μM, Venetoclax 0.2 μM
  Effect size (BIGL, HSA null model): −0.03
Compound 51 1 μM, Decitabine 0.0015 μM, Venetoclax 0.0001 μM
  Effect size (BIGL, HSA null model): 0.05
Compound 51 1 μM, Decitabine 0.015 μM, Venetoclax 0.001 μM
  Effect size (BIGL, HSA null model): −0.12
[5]
  Effect size (BIGL, HSA null model): −0.28
  maxR test call (additive / antagonism / synergy): **
Compound 51 1 μM, Decitabine 1.5 μM, Venetoclax 0.02 μM
  Effect size (BIGL, HSA null model): −0.05
Compound 51 1 μM, Decitabine 3 μM, Venetoclax 0.2 μM
  Effect size (BIGL, HSA null model): −0.03
Compound 51 10 μM, Decitabine 0.0015 μM, Venetoclax 0.0001 μM
  Effect size (BIGL, HSA null model): −0.05
[6]
  Effect size (BIGL, HSA null model): −0.17
  maxR test call (additive / antagonism / synergy): **
[7]
  Effect size (BIGL, HSA null model): −0.29
  maxR test call (additive / antagonism / synergy): **
Compound 51 10 μM, Decitabine 1.5 μM, Venetoclax 0.02 μM
  Effect size (BIGL, HSA null model): −0.05
Compound 51 10 μM, Decitabine 3 μM, Venetoclax 0.2 μM
  Effect size (BIGL, HSA null model): −0.03
Pairwise matrix of decitabine and Compound 51 in the presence of Venetoclax, MOLM-13, 6-day CellTiter-Glo
  combination effect on proliferation (in words): synergistically cytotoxic
